Assay results as given in US20010056085A1, “Methods of using vesicant drug formulations” (priority 1996, published 2001).
Several values for one entry are separate records, joined by “and”; a condition that tells them apart may be missing. Equal values may be shown once. Read-outs that look alike come from different tables or passages of the source.

Test: Half-life of ADR destruction by UVA light in the presence of test compounds (decrease in absorbance at 480 nm)
Format: physicochemical
[1] = UVA light, 100 μM test compound with 0.5 μM riboflavin
[2] = UVA light, 100 μM test compound alone

| Compound | Half-Life of ADR Destruction, 100 μM Test Compound and 0.5 μM Riboflavin [1] | Half-Life of ADR Destruction, 100 μM Test Compound [2] | also measured |
| --- | --- | --- | --- |
| Nc1ccccc1CO [2-Amino Benzyl Alcohol] | 3.96 min |  |  |
| Cc1ccc2[nH]ccc2c1 [5-Methyl Indole] | 8.85 min |  |  |
| O=c1[nH]c(=O)c2[nH]cnc2[nH]1 [Xanthine] | 16.7 min | 50.2 min |  |
| Nc1ccccc1F [2-Fluoro Aniline] | 8.36 min |  |  |
| COc1ccc(C(C)=O)cc1 [4′-Methoxyacetophenone] | 33.4 min |  |  |
| Coumaryl Glucose | 33.5 min | 43.0 min |  |
| Oc1ccc2c(c1)[nH]c1ccccc12 [2-Hydroxy Carbazole] |  |  | Half-Life of ADR Destruction, 100 μM Test Compound and 0.5 μM Riboflavin (UVA light, with 0.5 μM riboflavin, +4% DMSO): 75.3 ± 35.4 min |
| Cc1ccc2cc[nH]c2c1 [6-Methyl Indole] | 24.2 ± 1.3 min |  |  |
| O=C(O)c1cc2ccccc2o1 [2-Benzofurancarboxylic acid] | 50.2 min |  |  |
| O=C(O)c1ccc(C(=O)c2ccccc2)cc1 [4-Benzophenone-carboxylic acid] |  |  | Half-Life of ADR Destruction, 100 μM Test Compound: 10.0 min; Half-Life of ADR Destruction, 100 μM Test Compound and 0.5 μM Riboflavin: 7.72 min |
| c1ccc2cocc2c1 [Compound 2-Benzofuran, 2-Benzofuran] |  | 23.2 min |  |
| CC(C(=O)O)c1ccc(-c2ccccc2)c(F)c1 (stereo not drawn) [Flurbiprofen, 4-Phenyl-3-Fluoro-α-Methyl Phenylacetic Acid, reference compound] | 50.2 min | 75.3 min |  |
| Nc1ccc2ccccc2c1 [2-Aminonaplithalene] |  |  | Half-Life of ADR Destruction, 100 μM Test Compound and 0.5 μM Riboflavin: 20.1 min |
| OCCc1ccsc1 [Thiophene-3-ethanol] | 50.2 min |  |  |
| O=S(=O)(O)c1ccccc1 [Benzenesulfonic acid] | 50.2 min |  |  |
| Nc1ccc(C=CC(=O)O)cc1 [4-Amino Cinnamic Acid] | 16.7 min | 50.2 min |  |
| Nc1ccc(OCc2ccccc2)cc1 [4-Benzyloxyaniline] | 100.3 min | 100.3 min |  |
| O=C1COc2ccccc21 [3-Coumaranone] | 11.2 min | 11.2 min |  |
| Nc1ccc(O)c(C(=O)O)c1 [3-Amino-6-Hydroxy Benzoic Acid] | 301.0 min |  |  |

| Compound | Half-Life of ADR Destruction, 100 μM Test Compound and 0.5 μM Riboflavin [1] | Half-Life of ADR Destruction, 100 μM Test Compound [2] | also measured |
| --- | --- | --- | --- |
| O=C(O)CCOc1ccc(-c2ccccc2)cc1 [3-(4-Biphenylyloxy) Propionic Acid] | 43.0 min | 43.0 min |  |
| COc1ccc2ccccc2c1C(=O)O [2-Methoxynaphthalene-1-carboxylic acid] | 2.95 min | 33.5 min |  |
| NCCc1ccc(O)cc1 [4-Hydroxy Phenethylamine (Tyramine), 4-Hydroxy Phenethylamine] | 33.5 min |  |  |
| OCCc1c[nH]c2ccccc12 [3-Indoleethanol] | 8.14 min |  |  |
| COc1ccc2cc(CC(=O)O)ccc2c1 [6-Methoxynaphthalene-2-acetic acid] | 5.38 min | 17.7 min |  |
| Nc1cccc2c1Cc1ccccc1C2 [1-Amino-9,10-dihydroanthracene] | 75.3 min | 75.3 min |  |
| CCc1cccc(N)c1 [3-Ethyl Aniline] | 20.1 min |  |  |
| COc1cccc2cc[nH]c12 [7-Methoxy Indole] | 7.72 min | 43.0 min |  |
| O=C(O)C=Cc1ccc(O)c(O)c1 [3,4-Dihydroxy Cinnamic Acid] |  | 75.3 min |  |
| O=C(c1ccccc1)c1ccc[nH]1 [2-Benzoyl pyrrole] | 33.5 min | 50.2 min |  |
| COc1ccc2ccc(=O)oc2c1 [7-Methoxycoumarin] | 18.8 min | 20.1 min |  |
| O=C(C(=O)c1ccco1)c1ccco1 [Furil] | 33.5 min | 43.0 min |  |
| NC1c2ccccc2-c2ccccc21 [9-Amino Fluorene] | 50.2 min | 75.3 min |  |
| CCCCc1ccccc1N [2-Butyl Aniline] | 10.2 min |  |  |
| Cc1c(N)cccc1C(=O)O [3-Amino-2-Methyl Benzoic Acid] | 23.2 min |  |  |
| COc1ccc2c(CC(=O)O)cc(=O)oc2c1 [7-Methoxycoumarin-4-acetic acid] | 11.6 min | 14.3 min |  |
| O=C(O)c1ccccc1-c1ccccc1 [2-Phenyl Benzoic Acid] | 43.0 min | 43.0 min |  |
| Cc1[nH]c2ccccc2c1CC(=O)O [2-Methylindole-3-acetic acid] | 4.57 ± 2.92 min |  |  |
| O=C(O)c1ccc2c(c1)-c1ccccc1-2 [2-Biphenylene Carboxylic Acid] | 15.8 min |  |  |

| Compound | Half-Life of ADR Destruction, 100 μM Test Compound and 0.5 μM Riboflavin [1] | Half-Life of ADR Destruction, 100 μM Test Compound [2] | also measured |
| --- | --- | --- | --- |
| CN(C)c1ccc(CN)cc1 [4-(Dimethylamino) Benzylamine] | 43.0 min |  |  |
| Nc1cc(F)cc(F)c1 [3,5-Difluoro Aniline] | 15.1 min |  |  |
| Oc1ccc2[nH]ccc2c1 [5-Hydroxy Indole] | 150.5 min and 75.3 min |  |  |
| c1ccc2c(c1)CCCN2 [1,2,3,4-Tetrahydroquinoline] | 100.3 min |  |  |
| O=C(O)c1cc2ccccc2oc1=O [Coumarin-3-carboxylic acid] | 21.5 min | 23.2 min |  |
| COc1ccc2[nH]cc(C[C@H](N)C(=O)O)c2c1 [5-Methoxy-tryptophan] | 21.5 min |  |  |
| NCc1ccc(O)c(O)c1 [3,4-Dihydroxy Benzylamine] | 150.3 min |  |  |
| O=C(O)C1c2ccccc2-c2ccccc21 [9-Fluorene Carboxylic acid] | 43.0 min | 50.2 min |  |
| Nc1c(-c2ccccc2)cc(-c2ccccc2)cc1-c1ccccc1 [2,4,6-Triphenylaniline] | 33.5 min |  |  |
| Nc1ccc2[nH]ccc2c1 [5-Amino Indole] | 100.3 min |  |  |
| N[C@@H](Cc1ccccc1O)C(=O)O [2-Hydroxy Phenylalanine] | 15.1 min |  |  |
| Nc1ncnc2c1ncn2[C@@H]1O[C@H](CO)[C@@H](O)[C@H]1O [Adenine-9-ribose (Adenosine), Adenine-9-ribose, reference compound] | 43.0 min | 50.2 min |  |
| Nc1ccc(F)cc1 [4-Fluoro Aniline] | 12.0 min |  |  |
| O=C1c2cccc(S(=O)(=O)O)c2C(=O)c2cccc(S(=O)(=O)O)c21 [Anthraquinone-1,5-disulfonic acid] | 23.2 min | 30.1 min |  |
| COc1ccc2c(C(=O)C(N)=O)c[nH]c2c1 [6-Methoxy-3-indoleglyoxylamide] | 30.1 min | 75.3 min |  |
| c1ccc2c(c1)CCN2 [Indoline] |  |  | Half-Life of ADR Destruction, 100 μM Test Compound and 0.5 μM Riboflavin: 75.3 min |
| CCC(=O)c1ccc(OC)cc1 [4-Methoxypropriophenone] |  |  | Half-Life of ADR Destruction, 100 μM Test Compound and 0.5 μM Riboflavin: 30.1 min |
| Nc1cc([N+](=O)[O-])cc([N+](=O)[O-])c1 [3,5-Dinitro Aniline] |  |  | Half-Life of ADR Destruction, 100 μM Test Compound and 0.5 μM Riboflavin: 75.3 min |
| C1CCNC1 [Pyrrolidine] | 50.2 min |  |  |
